IC50 data for ten compounds are collected here from BindingDB's records for doi:10.1021/jm00161a033 (1986).

What is called IC50 is the concentration that gives 50% inhibition. Low values mean higher potency, high ones lower potency.

The target in this assay is Aldose reductase (Oryctolagus cuniculus). Briefly: In vitro inhibition of rabbit lens aldose reductase.

`CC(C(=O)O)c1cc(O)c2c(c1)CCc1ccccc1C2=O` (stereo not given) [2-(4-Hydroxy-5-oxo-10,11-dihydro-5H-dibenzo[a,d]cyclohepten-2-yl)-propionic acid] registered an IC50 of 210 nM.
The same measure for `O=C(O)Cc1ccc2c(c1)OCc1ccccc1C2=O` [Oxepinac]: 330 nM; for `O=C(O)Cc1ccc2c(c1)CCc1cccc(O)c1C2=O` [(6-Hydroxy-5-oxo-10,11-dihydro-5H-dibenzo[a,d]cyclohepten-2-yl)-acetic acid]: 280000 nM; for `O=C(O)Cc1cc(O)c2c(c1)CCc1ccccc1C2=O` [(4-Hydroxy-5-oxo-10,11-dihydro-5H-dibenzo[a,d]cyclohepten-2-yl)-acetic acid]: 110000 nM.
Compound `O=C(O)Cc1ccc2c(=O)c3ccccc3ccc2c1` [(5-Oxo-5H-dibenzo[a,d]cyclohepten-2-yl)-acetic acid] had a concentration for half-maximal inhibition (IC50) of 1000 nM.
The same measure for `O=C(O)Cc1ccc2c(c1)CCc1ccc(O)cc1C2=O` [(7-Hydroxy-5-oxo-10,11-dihydro-5H-dibenzo[a,d]cyclohepten-2-yl)-acetic acid]: 830 nM.
Consider `O=C(O)Cc1ccc2c(c1)CCc1ccccc1C2=O` [(5-Oxo-10,11-dihydro-5H-dibenzo[a,d]cyclohepten-2-yl)-acetic acid], for which the IC50 stood at 160000 nM.
On to `CC(C(=O)O)c1cc(O)c2c(=O)c3ccccc3ccc2c1` (stereo not given) [2-(4-Hydroxy-5-oxo-5H-dibenzo[a,d]cyclohepten-2-yl)-propionic acid], for which 2700 nM corresponded to half-maximal inhibition (IC50).
The same measure for `O=C1Cc2ccc3c(c2O1)CCc1ccccc1C3=O` [11,12-Dihydro-3H-1-oxa-benzo[4,5]cyclohepta[1,2-e]indene-2,6-dione]: 770 nM; for `O=C(O)Cc1cc(O)c2c(=O)c3ccccc3ccc2c1` [(4-Hydroxy-5-oxo-5H-dibenzo[a,d]cyclohepten-2-yl)-acetic acid]: 760 nM.
